According to publication PMC9822769, “The Strange Case: The Unsymmetric Cisplatin-Based Pt(IV) Prodrug [Pt(CH3COO)Cl2(NH3)2(OH)] Exhibits Higher Cytotoxic Activity with respect to Its Symmetric Congeners due to Carrier-Mediated Cellular Uptake” (Bioinorganic Chemistry and Applications, 2022):

System: A2780cisR cells
Assay: Cellular Pt accumulation (accumulation ratio) in A2780cisR cells
Format: cell-based, human
Conditions: 4 h CT, 10 μM
Method: A2780 and A2780cisR cells were seeded in 10 mm Petri dishes and challenged with complexes under investigation (10 μM) in a complete medium for 4 h. At the end of the exposure, cells were washed three times with PBS, detached from Petri dishes using 0.05% trypsin 1x + 2% EDTA (HyClone, Thermo Fisher), and harvested in a completely fresh medium. An automatic cell counting device (Countess®, Life Technologies) was used to measure the number and mean diameter of each cell necessary to calculate the mean cellular (spherical) volume.
For the analysis of Pt accumulation, cells were transferred to a borosilicate glass tube and centrifuged at 1100 rpm for 5 min at room temperature. […]
The determination of the platinum content was performed by ICP-MS (Thermo Optek X Series 2). […] The instrument settings were optimized to produce the highest platinum sensitivity, and the most abundant isotopes of Pt and In (used as an internal standard) were quantified at m/z 195 and 115, respectively.
The quantity of Pt found in cells and normalized on cell number (cellular Pt accumulation) was expressed as ng of Pt per 10^6 cells. The mean cellular volume, calculated from the actual mean cell diameter measured for each sample (about 12 μm), was used to obtain the volume of 10^6 cells and, finally, the intracellular Pt concentration. […]

With N.N.[Cl][Pt][Cl] [Cisplatin, (SP-4-2)-diamminedichloridoplatinum(II)] the “Pt accumulation (AR) in A2780cisR compared with A2780” value was “much lower amounts of Pt than A2780”.
